Laboratory results as given in ChEMBL document CHEMBL1201862, “PubChem BioAssay data set” (2004).
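Compound exposure: 48 hours, 5 concentrations, 96-well plates. GI50 = concentration required for 50% inhibition of growth.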 Activity calls are given as the source filed them. No stated cut-off is given here; in the data, active = GI50 up to about 1.1 µM and inactive = higher.

Legend:
Experiment in all cases: NCI anticancer screen, dose series, 48 h
786-0 = tested on: 786-0
A498 = tested on: A498
A549 = tested on: A549
ACHN = tested on: ACHN
CAKI-1 = tested on: CAKI-1
CCRF-CEM = tested on: CCRF-CEM
COLO 205 = tested on: COLO 205
DU-145 = tested on: DU-145
EKVX = tested on: EKVX
HCC 2998 = tested on: HCC 2998
HCT-116 = tested on: HCT-116
HCT-15 = tested on: HCT-15
HL-60 = tested on: HL-60
HOP-62 = tested on: HOP-62
HOP-92 = tested on: HOP-92
HT-29 = tested on: HT-29
Hs-578T = tested on: Hs-578T
IGROV-1 = tested on: IGROV-1
K562 = tested on: K562
KM12 = tested on: KM12
LOX IMVI = tested on: LOX IMVI
M14 = tested on: M14
MCF7 = tested on: MCF7
MDA-MB-231 = tested on: MDA-MB-231
MDA-MB-435 = tested on: MDA-MB-435
MDA-N = tested on: MDA-N
MOLT-4 = tested on: MOLT-4
Malme-3M = tested on: Malme-3M
NCI-H226 = tested on: NCI-H226
NCI-H23 = tested on: NCI-H23
NCI-H460 = tested on: NCI-H460
NCI-H522 = tested on: NCI-H522
NCI/ADR-RES = tested on: NCI/ADR-RES
OVCAR-3 = tested on: OVCAR-3
OVCAR-4 = tested on: OVCAR-4
OVCAR-5 = tested on: OVCAR-5
OVCAR-8 = tested on: OVCAR-8
PC-3 = tested on: PC-3
RPMI-8226 = tested on: RPMI-8226
RXF 393 = tested on: RXF 393
SF-268 = tested on: SF-268
SF-295 = tested on: SF-295
SF-539 = tested on: SF-539
SK-MEL-28 = tested on: SK-MEL-28
SK-MEL-2 = tested on: SK-MEL-2
SK-MEL-5 = tested on: SK-MEL-5
SK-OV-3 = tested on: SK-OV-3
SN12C = tested on: SN12C
SNB-19 = tested on: SNB-19
SNB-75 = tested on: SNB-75
SR = tested on: SR
SW-620 = tested on: SW-620
T47D = tested on: T47D
TK-10 = tested on: TK-10
U-251 = tested on: U-251
UACC-257 = tested on: UACC-257
UACC-62 = tested on: UACC-62
UO-31 = tested on: UO-31

Measured: GI50

C=C1CC(c2ccc(OCCCN3C(=O)c4ccccc4C3=O)cc2)OC1=O (stereo unspecified)
inactive: 786-0 1.95 µM | A498 1.37 µM | A549 16 µM | ACHN 4.19 µM | CAKI-1 2.37 µM | CCRF-CEM 1.64 µM | COLO 205 1.91 µM | DU-145 4.75 µM | EKVX 3.9 µM | HCC 2998 3.78 µM | HCT-116 1.8 µM | HL-60 1.96 µM | HOP-62 16.4 µM | HOP-92 1.36 µM | HT-29 2.53 µM | Hs-578T 5.31 µM | K562 1.52 µM | KM12 3.83 µM | LOX IMVI 1.36 µM | M14 2.55 µM | MCF7 1.42 µM | MDA-MB-231 3.95 µM | MDA-MB-435 2.52 µM | MDA-N 2.79 µM | MOLT-4 1.52 µM | Malme-3M 2.54 µM | NCI-H226 1.46 µM | NCI-H23 2.35 µM | NCI-H460 2.07 µM | NCI/ADR-RES 8.09 µM | OVCAR-3 1.86 µM | OVCAR-4 2.45 µM | OVCAR-5 11.4 µM | OVCAR-8 2.71 µM | PC-3 2.92 µM | RPMI-8226 1.12 µM | RXF 393 1.99 µM | SF-268 4.32 µM | SF-295 10.5 µM | SK-MEL-28 1.81 µM | SK-MEL-2 1.96 µM | SK-MEL-5 6.64 µM | SK-OV-3 14.4 µM | SN12C 3.31 µM | SNB-19 7.38 µM | SNB-75 10.6 µM | SR 3.05 µM | SW-620 1.48 µM | T47D 2.92 µM | TK-10 4.94 µM | U-251 4 µM | UACC-257 2.19 µM | UACC-62 1.97 µM | UO-31 3.74 µM
active: IGROV-1 1.06 µM | NCI-H522 0.653 µM | SF-539 0.123 µM
2.36 µM: HCT-15

CN(NC(=O)/C(=C/c1ccc(O)cc1)NC(=O)c1ccccc1)c1ccnc2cc(Cl)ccc12
inactive: 786-0 15.9 µM | A498 18.2 µM | A549 19.6 µM | ACHN 18.3 µM | CAKI-1 19.3 µM | CCRF-CEM 17.3 µM | COLO 205 17.5 µM | DU-145 21.9 µM | EKVX 18.2 µM | HCC 2998 18.1 µM | HCT-116 18.2 µM | HL-60 2.79 µM | HOP-62 15.1 µM | HOP-92 17.3 µM | HT-29 6.4 µM | Hs-578T 19.2 µM | IGROV-1 16.3 µM | K562 6.35 µM | KM12 17.8 µM | LOX IMVI 18.8 µM | M14 19 µM | MCF7 13.6 µM | MDA-MB-231 20.7 µM | MDA-MB-435 17.3 µM | MDA-N 17.4 µM | MOLT-4 16.7 µM | Malme-3M 20 µM | NCI-H226 12.7 µM | NCI-H23 > 10 µM | NCI-H460 15.6 µM | NCI-H522 21 µM | NCI/ADR-RES 14.5 µM | OVCAR-3 16.7 µM | OVCAR-4 17 µM | OVCAR-5 22.5 µM | OVCAR-8 17.8 µM | PC-3 16.6 µM | RPMI-8226 13.4 µM | RXF 393 14.6 µM | SF-268 15.1 µM | SF-295 16.4 µM | SF-539 23 µM | SK-MEL-28 19.9 µM | SK-MEL-2 22.3 µM | SK-MEL-5 21 µM | SK-OV-3 19 µM | SN12C 24.9 µM | SNB-19 17.2 µM | SNB-75 8.85 µM | SR 3.08 µM | SW-620 20.8 µM | T47D 20.5 µM | TK-10 15.5 µM | U-251 14.8 µM | UACC-257 17.8 µM | UACC-62 17.1 µM | UO-31 5.85 µM

COC1=CC(=O)c2c(O)c3c(c(O)c2C1=O)OC1(Oc2c(cc4cc(C)oc(=O)c4c2O)CC1O)C3O (stereo unspecified)
29 µM: HCT-15
inactive: 786-0 40 µM | A498 47.9 µM | A549 45.2 µM | ACHN 41.3 µM | CAKI-1 21.7 µM | CCRF-CEM 30.1 µM | COLO 205 32.8 µM | DU-145 33.8 µM | EKVX 24.9 µM | HCC 2998 28.9 µM | HCT-116 35.6 µM | HL-60 33.3 µM | HOP-62 35.2 µM | HOP-92 > 100 µM | HT-29 48.4 µM | Hs-578T 91.8 µM | IGROV-1 25.8 µM | K562 42.8 µM | KM12 29.9 µM | LOX IMVI 30.1 µM | M14 42.5 µM | MCF7 43.9 µM | MDA-MB-231 24 µM | MDA-MB-435 33.7 µM | MDA-N 20.8 µM | MOLT-4 23.3 µM | Malme-3M 2.14 µM | NCI-H23 35.6 µM | NCI-H460 27.4 µM | NCI-H522 25.1 µM | NCI/ADR-RES 46.9 µM | OVCAR-3 67.1 µM | OVCAR-4 27.8 µM | OVCAR-5 32.7 µM | OVCAR-8 40.4 µM | PC-3 38.4 µM | RPMI-8226 29.4 µM | SF-268 61 µM | SF-295 41.6 µM | SF-539 44.5 µM | SK-MEL-28 46.5 µM | SK-MEL-2 39.7 µM | SK-MEL-5 26.6 µM | SK-OV-3 77.1 µM | SN12C 23.5 µM | SNB-19 20.9 µM | SNB-75 60.4 µM | SR > 100 µM | SW-620 53.7 µM | T47D 38.1 µM | TK-10 50.9 µM | U-251 39.9 µM | UACC-257 40.6 µM | UACC-62 32.7 µM | UO-31 55.7 µM

COc1ccc2c(c1)/C(=C/CCN(C)C)c1ccccc1S2
inactive: A498 > 100 µM | A549 > 100 µM | ACHN > 100 µM | CCRF-CEM 54.6 µM | COLO 205 18.8 µM | DU-145 > 100 µM | HCC 2998 44.3 µM | HCT-116 55.8 µM | HL-60 48.5 µM | HOP-92 > 100 µM | HT-29 76.6 µM | Hs-578T 33.4 µM | K562 46.1 µM | KM12 > 100 µM | LOX IMVI 95.5 µM | M14 73.8 µM | MCF7 > 10 µM | MDA-MB-231 59 µM | MDA-MB-435 48 µM | MDA-N 43.3 µM | MOLT-4 67.1 µM | NCI-H226 > 100 µM | NCI-H23 > 100 µM | NCI-H460 > 100 µM | NCI/ADR-RES > 100 µM | OVCAR-3 > 100 µM | OVCAR-8 > 100 µM | PC-3 75.9 µM | RXF 393 35.6 µM | SF-268 92.9 µM | SF-295 > 100 µM | SK-MEL-28 19.4 µM | SK-MEL-5 16.2 µM | SK-OV-3 > 100 µM | SN12C > 100 µM | SNB-19 > 100 µM | SNB-75 27.5 µM | SR 69 µM | SW-620 > 100 µM | T47D > 100 µM | TK-10 > 100 µM | U-251 > 100 µM | UACC-257 > 100 µM | UO-31 27 µM
> 100 µM: HCT-15
